Assay results: ChEMBL document CHEMBL1132019, “RNA-aminoglycoside antibiotic interactions: fluorescence detection of binding and conformational change” (Bioorg Med Chem Lett, 1999)

Assays:
[1] = Compound was evaluated for the apparent second-order binding constant (K) at a concentration of 90 uM to 5 mM
[2] = Compound was evaluated for the apparent first-order binding constant (K) at a concentration of 90 uM to 5 mM
[3] = Compound was tested for inhibition against hammer head ribozyme complex (HH16-F)

NC[C@@H]1O[C@H](O[C@H]2[C@@H](O)[C@H](O[C@@H]3[C@@H](O)[C@H](N)C[C@H](N)[C@H]3O[C@H]3O[C@H](CN)[C@@H](O)[C@H](O)[C@H]3N)O[C@@H]2CO)[C@H](N)[C@@H](O)[C@@H]1O [FRAMYCETIN]
K [1]: 8 M-2 | K [2]: 4 M⁻¹ | Ki [3]: 13.5 µM
